# Source: patent publication US10316050B2, “PT (IV) complexes containing 4,4′-disubstituted-2,2′-bipyridyl and their use in cancer therapy” (THE BOARD OF REGENTS OF THE NEVADA SYSTEM OF HIGHER …, priority 2014, dated 2019)
# Read-outs that look alike come from different tables or passages of the source.
# How the values were obtained:
# Assay type in all cases: cell-based, human
# [1] = system: SK-BR-3 breast cancer cells; experiment: MTS cell viability assay, SK-BR-3; conditions: for EC50: read-out: EC50 (effective concentration that resulted in 50% cell viability)
# How it was run: (§1)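 SK-BR-3 cells grown in MEM, DU145 and PC-3 cells in RPMI-1640, each with 10% FBS and 25 mM HEPES pH 7.4, plated 2 days to ~50% confluence. Exposure to increasing Pt complex or cisplatin/carboplatin concentrations for 1 h (washed, then 2 days recovery) or 48 h continuous. MTS absorbance at 490 nm after 4 h; viability as percent of control.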
# [2] = system: H520 lung cancer cells; experiment: MTS cell viability assay, H520; conditions: read-out: EC50 (effective concentration that resulted in 50% cell viability)
# Protocol: (§2) Human breast (HCC38, MCF-7, MDA-MB-231, SK-BR-3, T-47D, and ZR-75-1), lung (A549 and H520), and prostate (DU145 and PC-3) cancer cell lines were obtained from American Culture Type Collection (ATCC). The HCC38, MCF-7, MDA-MB-231, SK-BR-3, T-47D, ZR-75-1, and A549 cells were grown in MEM supplemented with 10% FBS, 25 mM HEPES buffer (pH 7.4), penicillin (100 U/mL), and streptomycin (100 μg/mL). The H520, DU145, and PC-3 cell lines were grown in RPMI-1640 supplemented with 10% FBS, 25 mM HEPES buffer (pH 7.4), penicillin (100 U/mL), and streptomycin (100 μg/mL). All cell lines were maintained at 37° C. in a humidified, 5% CO2 atmosphere.
# (§3) Cells were cultured at a density of 2-3.5×10^3 cells per well in flat bottomed 96-well plates in 100 μL of complete growth medium and incubated for 2 days to reach ˜50% confluence. The cells were then treated with solvent or the appropriate drugs (CDDP stock was dissolved in 0.15 M NaCl, carboplatin stock was dissolved in 5% glucose, synthesized Pt(IV) complexes were dissolved in DMSO) for 1 hour, washed three times with 100 μL PBS, and incubated in 100 μL of fresh medium. After 2 days, the medium was replaced with 120 μL of medium containing CellTiter 96® Aqueous One Solution Reagent (MTS reagent) (Promega, Madison, Wis.). The cells were incubated at 37° C. for 4 hours and the cell viability was determined by measuring the absorbance at 490 nm using a Tecan Infinite M1000 microplate reader. The 48 h treatment was done in a similar manner, except the cells were not washed after treatment and the MTS reagent was immediately added. Viability of treated groups was calculated as a percent of control and graphed with GraphPad Prism.
# (§4) The anti-proliferative activities of Pt(IV) complexes were determined in two lung (A549 and H520), two prostate (DU145 and PC-3), and six breast (HCC38, MCF-7, MDA-MB-231, SK-BR-3, T-47D, and ZR-75-1) cancer cell lines. The cells were treated with increasing concentrations of cisplatin (CDDP), carboplatin, or the Pt(IV) complexes for 1 or 48 hours, and the viability was measured using an MTS colorimetric cell proliferation assay. Graphs of the results are shown for DU145 (FIG. 8A), PC-3 (FIG. 8B), SK-BR-3 (FIG. 8C), ZR-75-1 (FIG. 8D), A549 (FIG. 8E), and MCF-7 (FIG. 8F).
# [3] = system: MCF-7 breast cancer cells; experiment: MTS cell viability assay, MCF-7; conditions: for EC50: read-out: EC50 (effective concentration that resulted in 50% cell viability)
# How it was run: (§5)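 Cells seeded at 2-3.5×10³/well in MEM + 10% FBS, 25 mM HEPES pH 7.4, grown 2 days to ~50% confluence. Compound exposure either 1 h then washed and 2 days recovery, or 48 h continuous; viability by MTS absorbance at 490 nm after 4 h, as % of solvent control.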
# [4] = system: T-47D breast cancer cells; experiment: MTS cell viability assay, T-47D
# Protocol: as §2, §3, §4
# [5] = system: ZR-75-1 breast cancer cells; experiment: MTS cell viability assay, ZR-75-1; conditions: read-out: EC50 (effective concentration that resulted in 50% cell viability)
# Protocol: as §2, §3, §4
# [6] = system: DU145 prostate cancer cells; conditions: for EC50: read-out: EC50 (effective concentration that resulted in 50% cell viability)
# How it was run: as §1
# [7] = system: PC-3 prostate cancer cells; experiment: MTS cell viability assay, PC-3; conditions: for EC50: read-out: EC50 (effective concentration that resulted in 50% cell viability)
# How it was run: as §1
# [8] = system: MDA-MB-231 breast cancer cells; experiment: MTS cell viability assay, MDA-MB-231; conditions: read-out: EC50 (effective concentration that resulted in 50% cell viability)
# Protocol: as §2, §3, §4
# [9] = system: HCC38 breast cancer cells; experiment: MTS cell viability assay, HCC38; conditions: read-out: EC50 (effective concentration that resulted in 50% cell viability)
# Protocol: as §2, §3, §4
# [10] = system: A549 lung cancer cells; experiment: MTS cell viability assay, A549; conditions: for EC50: read-out: EC50 (effective concentration that resulted in 50% cell viability)
# How it was run: as §5
# [11] = SK-BR-3, 1 h treatment, Table 3
# [12] = 1 h treatment, Table 3, read-out: EC50 (effective concentration that resulted in 50% cell viability)
# [13] = 48 h, Table 5, read-out: EC50 (effective concentration that resulted in 50% cell viability)
# [14] = ZR-75-1, 1 h treatment, Table 3
# [15] = MDA-MB-231, 1 h treatment, Table 3
compound,measurement,setting,value
"[NH2][Pt]([NH2])([Cl])[Cl] [CDDP, Cisplatin, reference compound]",EC50,"[1]; SK-BR-3, 1 h treatment, Table 2",420 ± 80 µM
same,EC50,[1]; [11],420 ± 80 µM
same,EC50,"[1]; SK-BR-3, 48 h, Table 5",23 ± 8 µM
same,EC50,"[1]; SK-BR-3, 48 h treatment, Table 4",23 ± 6 µM
same,anti-proliferative activity compared to cisplatin (in words),"[1]; SK-BR-3, one and 48 hours treatment (FIG. 8G)",concentration dependent decreased in cell viability
same,EC50,"[2]; H520, 1 h treatment, Table 2",200 ± 17 µM
same,EC50,"[2]; H520, 1 h treatment, Table 3",200 ± 17 µM
same,EC50,"[2]; H520, 48 h, Table 5",24 ± 2 µM
same,EC50,"[2]; H520, 48 h treatment, Table 4",24 ± 2 µM
same,EC50,"[3]; MCF-7, 1 h treatment, Table 2",900 ± 60 µM
same,EC50,"[3]; MCF-7, 1 h treatment, Table 3",900 ± 100 µM
same,EC50,"[3]; MCF-7, 48 h, Table 5",34 ± 1 µM
same,EC50,"[3]; MCF-7, 48 h treatment, Table 4",35 ± 1 µM
same,EC50,"[4]; 1 h treatment, Table 2, read-out: EC50 (effective concentration that resulted in 50% cell viability)",900 ± 100 µM
same,EC50,[4]; [12],900 ± 100 µM
same,EC50,[4]; [13],35 ± 6 µM
same,EC50,"[4]; 48 h treatment, Table 4, read-out: EC50 (effective concentration that resulted in 50% cell viability)",35 ± 6 µM
same,EC50,"[5]; ZR-75-1, 1 h treatment, Table 2",260 ± 10 µM
same,EC50,[5]; [14],260 ± 10 µM
same,EC50,"[5]; ZR-75-1, 48 h, Table 5",30 ± 8 µM
same,EC50,"[5]; ZR-75-1, 48 h treatment, Table 4",30 ± 8 µM
same,effect on cell viability (in words),"[6]; DU145, 1 hour treatment (FIG. 8A, top), up to 1 mM carboplatin, 100 μM Pt(IV)-1C, 50 μM Pt(IV)-2C",concentration dependent decrease in cell viability
same,EC50,"[6]; DU145, 1 h treatment, Table 2",400 ± 100 µM
same,EC50,"[6]; DU145, 1 h treatment, Table 3",400 ± 100 µM
same,EC50,"[6]; DU145, 48 h, Table 5",64 ± 8 µM
same,EC50,"[6]; DU145, 48 h treatment, Table 4",64 ± 8 µM
same,anti-proliferative activity compared to cisplatin (in words),"[6]; DU145, one and 48 hours treatment (FIG. 8H)",concentration dependent decreased in cell viability
same,EC50,"[7]; PC-3, 1 h treatment, Table 2",200 ± 20 µM
same,EC50,"[7]; PC-3, 1 h treatment, Table 3",200 ± 20 µM
same,EC50,"[7]; PC-3, 48 h, Table 5",30 ± 1 µM
same,EC50,"[7]; PC-3, 48 h treatment, Table 4",30 ± 1 µM
same,anti-proliferative activity compared to cisplatin (in words),"[7]; PC-3, one and 48 hours treatment (FIG. 8I)",concentration dependent decreased in cell viability
same,EC50,"[8]; MDA-MB-231, 1 h treatment, Table 2",50 ± 4 µM
same,EC50,[8]; [15],50 ± 4 µM
same,EC50,"[8]; MDA-MB-231, 48 h, Table 5",21 ± 3 µM
same,EC50,"[8]; MDA-MB-231, 48 h treatment, Table 4",21 ± 3 µM
same,EC50,"[9]; HCC38, 1 h treatment, Table 2",300 ± 30 µM
same,EC50,"[9]; HCC38, 1 h treatment, Table 3",300 ± 30 µM
same,EC50,"[9]; HCC38, 48 h, Table 5",30 ± 8 µM
same,EC50,"[9]; HCC38, 48 h treatment, Table 4",30 ± 8 µM
same,EC50,"[10]; A549, 1 h treatment, Table 2",900 ± 200 µM
same,EC50,"[10]; A549, 1 h treatment, Table 3",900 ± 200 µM
same,EC50,"[10]; A549, 48 h, Table 5",500 ± 100 µM
same,EC50,"[10]; A549, 48 h treatment, Table 4",500 ± 100 µM
"CC(=O)[O][Pt]([Cl])([Cl])[O]C(C)=O.CCCCCOc1ccnc(-c2cc(OCCCCC)ccn2)c1 [Pt(IV)-5C, [Pt(IV)Cl2(OAc)2(4,4′-dipentoxy-2,2′-bipyridine)]]",EC50,[1]; [11],1.3 ± 0.6 µM
same,EC50,"[1]; SK-BR-3, 48 h, Table 5",0.3 ± 0.03 µM
same,EC50,"[2]; H520, 1 h treatment, Table 3",3 ± 1 µM
same,EC50,"[2]; H520, 48 h, Table 5",1 ± 0.3 µM
same,EC50,"[3]; MCF-7, 1 h treatment, Table 3",2.9 ± 0.13 µM
same,EC50,"[3]; MCF-7, 48 h, Table 5",2 ± 0.1 µM
same,EC50,[4]; [12],2.3 ± 0.3 µM
same,EC50,[4]; [13],0.248 ± 0.001 µM
same,EC50,[5]; [14],1.6 ± 0.1 µM
same,EC50,"[5]; ZR-75-1, 48 h, Table 5",0.55 ± 0.07 µM
same,EC50,"[6]; DU145, 1 h treatment, Table 3",1 ± 1 µM
same,EC50,"[6]; DU145, 48 h, Table 5",0.34 ± 0.02 µM
same,EC50,"[7]; PC-3, 1 h treatment, Table 3",1.7 ± 0.2 µM
same,EC50,"[7]; PC-3, 48 h, Table 5",0.5 ± 0.2 µM
same,EC50,[8]; [15],1.8 ± 0.1 µM
same,EC50,"[8]; MDA-MB-231, 48 h, Table 5",0.26 ± 0.01 µM
same,EC50,"[9]; HCC38, 1 h treatment, Table 3",3 ± 1 µM
same,EC50,"[9]; HCC38, 48 h, Table 5",2.1 ± 0.3 µM
same,EC50,"[10]; A549, 1 h treatment, Table 3",6.6 ± 0.3 µM
same,EC50,"[10]; A549, 48 h, Table 5",2.2 ± 0.1 µM
"[Pt(IV)Cl2(OAc)2(4,4′-dibutoxy-2,2′-bipyridine)] [Pt(IV)-4C]",EC50,[1]; [11],4 ± 0.7 µM
same,EC50,"[1]; SK-BR-3, 48 h, Table 5",0.44 ± 0.02 µM
same,EC50,"[2]; H520, 1 h treatment, Table 3",13 ± 5 µM
same,EC50,"[2]; H520, 48 h, Table 5",2.2 ± 0.1 µM
same,effect on cell viability (in words),"[3]; MCF-7, 1 hour treatment, at the concentrations tested (FIG. 8F)",did not have any effect
same,EC50,"[3]; MCF-7, 1 h treatment, Table 3",> 25 µM
same,EC50,"[3]; MCF-7, 48 h, Table 5",2.2 ± 0.1 µM
same,EC50,[4]; [12],10 ± 1 µM
same,EC50,[4]; [13],0.33 ± 0.07 µM
same,EC50,[5]; [14],2.9 ± 0.3 µM
same,EC50,"[5]; ZR-75-1, 48 h, Table 5",0.7 ± 0.2 µM
same,EC50,"[6]; DU145, 1 h treatment, Table 3",8 ± 7 µM
same,EC50,"[6]; DU145, 48 h, Table 5",0.9 ± 0.2 µM
same,EC50,"[7]; PC-3, 1 h treatment, Table 3",5 ± 3 µM
same,EC50,"[7]; PC-3, 48 h, Table 5",1.1 ± 0.4 µM
same,EC50,[8]; [15],2.8 ± 0.1 µM
same,EC50,"[8]; MDA-MB-231, 48 h, Table 5",1 ± 0.2 µM
same,EC50,"[9]; HCC38, 1 h treatment, Table 3",17 ± 3 µM
same,EC50,"[9]; HCC38, 48 h, Table 5",2.1 ± 0.2 µM
same,effect on cell viability (in words),"[10]; A549, 1 hour treatment, at the concentrations tested (FIG. 8E)",did not have any effect
same,EC50,"[10]; A549, 1 h treatment, Table 3",> 25 µM
same,EC50,"[10]; A549, 48 h, Table 5",14 ± 1 µM
